Measurements as given in patent US20200032271A1, “COMBINATION THERAPY WITH LIPOSOMAL ANTISENSE OLIGONUCLEOTIDES” (Bio-Path Holdings, Inc., priority 2016, published 2020).
[PEt] = P-ethoxy (ethyl phosphotriester) internucleoside linkage

Experiments:
[1] = tested on: five strains of Salmonella; experiment: Ames mutagenicity study; type: cell-based; details: presence and absence of S-9
Procedure: BP1001 was tested in an Ames mutagenicity study. Sodium chloride (0.9%) was added to vials of BP1001 containing 5 mg of Grb2 oligonucleotide. The sample was tested against five strains of Salmonella in various concentrations in the presence and absence of the S-9 enzyme activation system. The sample was not mutagenic to the strains tested.

[2] = tested on: BV173 cells; experiment: Cell cycle analysis (7-AAD flow cytometry); type: cell-based, human; details: BP1001 1 day before dasatinib, harvested three days later (FIGS. 8A-D)
Procedure: Cells were then fixed and permeabilized for 1 h at 4° C. with 1×Fixation/Permeabilization buffer (Ebioscience, San Diego, Calif., USA). After permeabilization, cells were washed and incubated with 7-aminoactinomycin D (7-AAD, Biolegend, San Diego, Calif., USA) in the dark at 4° C. for about 30 min. Flow cytometric data acquisition was acquired using BD FACSDiva™ software (BD Biosciences, San Jose, Calif., USA). The flow cytometer was set to collect 20,000 events. Relative percentages in the different cell cycle phases (sub-G1, G1, S, G2/M) were reported.
[…] Three days later, cells were harvested and processed for flow cytometry.

[3] = rat, in vivo, iv

## BP1001: liposome-incorporated P-ethoxy antisense oligodeoxynucleotide (5′-ATATTTGGCGATGGCTTC-3′, SEQ ID NO: 1) specific to grb2 mRNA, in neutral DOPC liposomes (DNA, all [PEt], methylation of C not given here; incorporated in neutral DOPC liposomes)
[1]
  mutagenicity: not mutagenic
[2]
  percentage of cells in sub-G1 phase: 3.1%
[3]
  t1/2α (initial distribution phase): 5.16 ± 0.3 min
[3]; 10 mg/kg
  Area under the concentration curve (AUC): 5.4 ± 0.9 mg·min/mL
  immediate apparent volume of distribution: 36.42 ± 1.88 mL
  residence time: 309.6 ± 21.5 min
  terminal phase half-life (t1/2β): 3.76 ± 0.22 h
